This is an account of results in patent publication US10039795B2, “Codon optimized recombinant phage and methods of using same” (priority 2014, dated 2018).

What all share (format): cell-based
The test system of assay [1] is stressed bacterial cells (Listeria). As to conditions: for effect on infection rate or enzymatic activity: antifungal agent added to base medium. The protocol: Media were screened for the ability to support high infection rate and high signal intensity following infection with phage encoding a luciferase marker. Bacterial cells were purposefully stressed by way of drying for 18 hours on a stainless steel table, followed by re-suspension in brain-heart infusion medium (BHI) for 30 minutes. The recovered cells were then infected with phage containing a luciferase marker for 6 hours followed by testing of the enzymatic activity using unpurified phage lysate and NanoLuc reagent.
BHI and TSB media were further titrated to assess whether there was an increase in RLU at different concentrations of base media.
Select components were added to the media in order to remedy known stressors to cells, and to reduce the possibility for other chemicals interfering with the test results. To this end, lithium chloride was added at defined concentrations to the selected 1×TSB base medium, followed by infecting the cells with a luciferase containing phage, and lastly by assaying the RLU detectable as a function of the percentage of lithium chloride added to the media. Lithium chloride was selected as an additive in order to overcome, prevent or limit growth of competing biologicals. […] (See FIG. 11).
Components selected to overcome cell starvation and oxidative stress, glucose and yeast extract, respectively, were titrated in 1×TSB, followed by infection of the bacteria with luciferase containing phage, and lastly by assaying the RLU detectable as a function of the percentage of either glucose or yeast extract.
Antifungal agents were also added to the base medium and tested in order to determine whether there is a decrease in RLU activity, either as a result of loss of enzyme activity or because of reduced infection ability. The anti-fungal agents tested included cycloheximide solution in DMSO.
The effect of divalent cations added to Formulation-1 was assessed. MgSO4 or CaCl2 was added to Formulation-1, followed by infection of bacteria with luciferase encoding phage, and assessment of resultant RLU.
The resultant formulation that incorporates all of the components of Formulation-1A, with the addition of HEPES, is herein referred to as Formulation-2 or as NIB-12.

The test system of assay [2] is Listeria.
Assay [3] relates to bacteria exposed to luciferase encoding phage. The assay can be described thus: Phage infection and enzyme activity across media formulations (RLU). The note with it: comparison across media formulations and additives. The protocol:
A systematic comparison of RLU values as a function of additive component was performed on various media formulations. (See FIG. 15). The effects of different additives on both enzymatic activity, as well as infection ability, was measured and compared by way of assessing RLU across the different conditions.

Assay [4] has as its system 1893 cell-type. The assay is described as follows: Sanitizer neutralization assay, phage infection step. The note with it: added to NIB-14; 2 mM sodium metabisulfite or 0.05% sodium thiosulfate. On the procedure:
Following the 30 minute incubation period, the luciferase marker containing phage was added in BHI medium, and the samples were further allowed to incubate for an additional 3 hours at 30° C. The enzyme was then detected by the addition of the NanoGlo luciferin substrate and luminescence measurement. […] Another variant of this assay involved the direct incubation of the sterilization chemical with the NanoGlo luciferin substrate in the absence of either cells, phage or enzyme.

Assay [5] relates to bacterial cells (Listeria). The assay is described as follows: RLU after phage infection in the presence of increasing quaternary ammonium salts. The note with it: additive in Listeria Growth Broth. The text has this:
Bacterial cells were exposed to luciferase encoding phage in the following buffers, Listeria growth broth, Listeria growth broth with TWEEN®-80, or to Listeria growth broth with the addition of both TWEEN®-80 and lecithin. The RLU values are shown on the y-axis.
The addition of TWEEN®-80, either alone or in combination with lecithin, to the Formulation-2 (NIB-12) medium allowed for protection of the samples from interference by quaternary ammonium salts. (See FIG. 14). […] In this case, there was a sustained, detectable RLU in the presence of up to 62.5 ppm quaternary ammonium salts. The amount of resistance to quaternary ammonium salts was further increased through the addition of both lecithin and TWEEN®-80. With the addition of both reagents to Listeria Growth Broth, there was detectable RLU up to 125 ppm quaternary ammonium salts. Another preferred embodiment of the media contains 1.5% of TWEEN®-80 and 0.22% of lecithin.

Where [6] appears, read: component of aqueous solution (infection buffer).

Read-outs that look alike come from different tables or passages of the source.

With `CC(=O)C(=O)[O-].[Na+]` [Sodium pyruvate], the “RLU activity on addition of pyruvate” value in assay [1] (HEPES titration experiment) is “further increased RLU activity”. Further, the “Effect on Listeria Detection” value in assay [2] (setting [6]) is given as “positive”. Moreover, the “infection ability (RLU)” value in assay [3] is on record as “large impact in increasing infection ability”.

As for Ferric sulfate, the “Effect on Listeria Detection” value in assay [2] (setting [6]) is reported as “neutral”.

Take Polysorbate 20: the “Effect on Listeria Detection” value in assay [2] (setting [6]) was “negative”.

As to `[Ca+2].[Cl-].[Cl-]` [Calcium chloride], the “Effect on Listeria Detection” value in assay [2] is “neutral”.

Consider `CC(C)(O/N=C(\C(=O)N[C@@H]1C(=O)N2C(C(=O)[O-])=C(C[n+]3ccccc3)CS[C@H]12)c1csc(N)n1)C(=O)O` [Ceftazidime, reference compound], for which, in assay [2] (setting [6]), the “Effect on Listeria Detection” value is recorded as “positive”.

Take `O=S(=O)(O)CCCN1CCOCC1` [MOPS, pH 7.2, MOPS]: the “Effect on Listeria Detection” value in assay [2] (setting [6]) is “positive”.

Consider `O=S([O-])([O-])=S.[Na+].[Na+]` [Sodium thiosulfate], for which the “Effect on Listeria Detection” value in assay [2] was “negative”. Further, the “effect of oxygen scavenger on oxidizing effect of peroxide” value in assay [4] is “reduced the oxidizing effect of peroxide”.

For the compound `O=S(=O)([O-])[O-].[Fe+2]` [Ferrous sulphate], in assay [2] (setting [6]), the “Effect on Listeria Detection” value is on record as “negative”.

`O=C([O-])CS.[Na+]` [Sodium thioglycollate]: the “Effect on Listeria Detection” value in assay [2] (setting [6]) is given as “negative”.

In the case of O-octophosphorylcholine, the “Effect on Listeria Detection” value in assay [2] (setting [6]) is “negative”.

As to `C[N+](C)(C)CCOP(=O)(O)O.[Cl-]` [Phosphocholine chloride], the “Effect on Listeria Detection” value in assay [2] (setting [6]) was “negative”.

For the compound `Cc1ncc(C[n+]2csc(CCO)c2C)c(N)n1` [Thiamine], the “Effect on Listeria Detection” value in assay [2] (setting [6]) is listed as “neutral”.

Turning to `O=C([O-])CC(=O)[O-].[Na+].[Na+]` [Sodium malonate], the “Effect on Listeria Detection” value in assay [2] (setting [6]) is “negative”.

Take `CO[C@@]1(NC(=O)C(C(=O)O)c2ccc(O)cc2)C(=O)N2C(C(=O)O)=C(CSc3nnnn3C)CO[C@@H]21` (stereo partly drawn) [Moxalactam, reference compound]: the “Effect on Listeria Detection” value in assay [2] (setting [6]) is “neutral”.

On to `OCC(O)CO` [Glycerol], for which the “Effect on Listeria Detection” value in assay [2] (setting [6]) is “neutral”.

`O=C([O-])CC(O)(CC(=O)[O-])C(=O)[O-].[Na+].[Na+].[Na+]` [Sodium citrate]: the “Effect on Listeria Detection” value in assay [2] (setting [6]) is listed as “negative”.

On to `O=S(=O)([O-])[O-].[Mg+2]` [Magnesium sulphate], for which the “RLU activity on addition of divalent cation” value in assay [1] (added to Formulation-1, in comparison to CaCl2) is reported as “marked increase”. Moreover, the “Effect on Listeria Detection” value in assay [2] (setting [6]) is on record as “positive”. Also, the “infection ability (RLU)” value in assay [3] is on record as “large impact in increasing infection ability”.

As to `C[C@@H]1C[C@@H]([C@H](O)CC2CC(=O)NC(=O)C2)C(=O)[C@@H](C)C1` [Cycloheximide], in assay [1], the “effect on infection rate or enzymatic activity” value is “Neither cycloheximide nor DMSO resulted in a decrease”. In addition, the “Effect on Listeria Detection” value in assay [2] (setting [6]) is recorded as “neutral”.

In the case of `O=C(O)CCC(=O)C(=O)O` [Alpha-ketoglutarate], the “Effect on Listeria Detection” value in assay [2] (setting [6]) is listed as “negative”.

Consider `C[S+](C)[O-]` [DMSO], for which, in assay [1], the “effect on infection rate or enzymatic activity” value is “Neither cycloheximide nor DMSO resulted in a decrease”.

With `OC[C@H]1O[C@@](CO)(O[C@H]2O[C@H](CO)[C@@H](O)[C@H](O)[C@H]2O)[C@@H](O)[C@@H]1O` [Sucrose], the “Effect on Listeria Detection” value in assay [2] (setting [6]) is listed as “neutral”.

Regarding `[Cl-].[Li+]` [Lithium chloride], the “additive concentration giving highest RLU / selected on RLU levels” value in assay [1] (titrated in 1×TSB, 3 hour and 6 hour assay points) turned out to be 0.25%. In assay [2] (setting [6]), the “Effect on Listeria Detection” value was “optimized”.

Regarding Acriflavin, the “Effect on Listeria Detection” value in assay [2] (setting [6]) was “negative”.

As to `O=S([O-])S(=O)(=O)[O-].[Na+].[Na+]` [Sodium metabisulfite], the “Effect on Listeria Detection” value in assay [2] (setting [6]) is listed as “positive”. Also, the “effect of oxygen scavenger on oxidizing effect of peroxide” value in assay [4] was “reduced the oxidizing effect of peroxide”.

On to `O=S(=O)(O)CCN1CCN(CCO)CC1` [HEPES, pH 7.4, HEPES], for which, in assay [1] (titrated into Formulation-1A, 3 hour and 6 hour time points), the “ideal HEPES concentration for high RLU activity” value came to 20 mM. In addition, in assay [2] (setting [6]), the “Effect on Listeria Detection” value is “positive”.

As for Ferric ammonium citrate, the “Effect on Listeria Detection” value in assay [2] (setting [6]) is on record as “neutral”.

For the compound `CCn1cc(C(=O)O)c(=O)c2ccc(C)nc21` [Nalidixic acid, reference compound], in assay [2] (setting [6]), the “Effect on Listeria Detection” value is reported as “positive”.

Polysorbate 80: the “Effect on Listeria Detection” value in assay [2] (setting [6]) is “positive”. The “quaternary ammonium salts concentration up to which RLU is detectable” value in assay [5] is on record as “up to 62.5 ppm”. In assay [3], the “infection ability (RLU)” value is reported as “large impact in increasing infection ability”.

Turning to `N[C@@H](CCC(=O)[O-])C(=O)[O-].[Na+].[Na+]` [Sodium glutamate], the “Effect on Listeria Detection” value in assay [2] (setting [6]) is listed as “neutral”.

For the compound Triton X-100, in assay [2] (setting [6]), the “Effect on Listeria Detection” value is given as “negative”.

Ferric citrate: the “Effect on Listeria Detection” value in assay [2] (setting [6]) is on record as “neutral”.
